In general, EC50 refers to the concentration that produces a half-maximal response.

Experiment [1] deals with HuPCaR 5.2 calcium receptor. In words: fluorescence ([Ca^2+ ]i) in HEK 293 cells transfected with Cep4B containing the HuPCaR 5.2 insert. In kind it is cell-based, human. The conditions noted are these: Ca^2+ 10 mM, Mg^2+ 20 mM; 37° C. As to the method:
Clonal cell lines that stably express the two human and the bovine calcium receptors have been isolated. Calcium receptor cDNAs were subcloned in two different, commercially available expression vectors; pMSG (obtained from Pharmacia) and Cep4B (obtained from Invitrogen). The first vector contains the selectable marker gene for xanthine-guanine phosphoribosyltransferase (gpt) allowing stably transfected cells to overcome the blockade of the purine biosynthetic pathway imposed by addition of 2 μg/ml aminopterin and 25 μg/ml mycophenolic acid. The second vector encodes a gene conferring resistance to the antibiotic hygromycin (used at 200 μg/ml). […]
Cells obtained from the pool of hygromycin selected HEK 293 cells transfected with Cep4B containing the HuPCaR 5.2 insert were plated on collagen coated Aklar squares which had been placed into individual wells of 12-well tissue culture plates. […] Measurements of fluorescence in response to calcium receptor agonists were performed at 37° C. in a spectrofluorimeter using excitation and emission wavelengths of 340 and 510 nm, respectively. For signal calibration, Fmax was determined after addition of ionomycin (40 μM) and the apparent Fmin was determined by addition of 0.3 M EGTA, 2.5 M Tris-HCl; pH 10.

The test system of experiment [2] is human parathyroid cell calcium receptor. In words: stimulation of calcium-activated chloride currents in Xenopus oocytes injected with calcium receptor cRNA. The format is cell-based. The conditions noted are these: calcium-activated chloride current. As to the method:
Representative cDNA inserts for both size classes were subcloned into the plasmid vector pBluescript SK. Linearization followed by in vitro transcription using T7 RNA polymerase produced cRNA transcripts. The cRNA transcripts were injected into Xenopus oocytes (150 ng/μl RNA; 50 nl/oocyte) for functional analysis. Following incubation periods of 2-4 days, the oocytes were assayed for the presence of functional calcium receptors. Both clone types gave rise to functional calcium receptors as assessed by the stimulation of calcium-activated chloride currents upon addition of appropriate calcium receptor agonists. […] Thus, both clones encode a functional, human parathyroid cell calcium receptor.
In addition, pHuPCaR4.0 encodes glutamine (Gln) at aa#925 and glycine (Gly) at position 990 whereas pHuPCaR5.2 encodes arg (Arg) at both equivalent positions. The human CaR gene encodes for Gln and Arg, respectively, at these positions. The difference between the pHuPCaR4.0 cDNA compared to human DNA appears to represent a true sequence polymorphism within the human population while the single base change in pHuPCaR5.2 probably reflects a mutation which occurred during its cloning. […] However, it is possible that these two receptor isoforms are functionally and/or pharmacologically distinct.

Experiment [3] relates to calcium receptor. The settings on record: cited from earlier work.
The test system of experiment [4] is human subjects. In words: pharmacological activity in human subjects after oral doses. The format is in vivo. The conditions noted are these: 10-400 mg oral doses. The text has this: Proper dosing can also be carried out using standard techniques. […] Thus, the glucuronide conjugate of 17Q may be exerting some beneficial effect.
Experiment [5] relates to Parathyroid Cell Calcium Receptor. In words: EC50 in parathyroid cells or HEK 293/pHuPCaR4.0 cells loaded with fura-2. The format is cell-based, calves and humans. The settings on record: parathyroid cells or HEK 293/pHuPCaR4.0, fura-2; cell type not given per value. As to the method: This section describes procedures used to obtain parathyroid cells from calves and humans, and to use the parathyroid cells to measure calcium receptor activity.
Human parathyroid glands, were obtained from patients undergoing surgical removal of parathyroid tissue for primary or uremic hyperparathyroidism (uremic HPT), and were treated similarly to bovine tissue.
Glands were trimmed of excess fat and connective tissue and then minced with fine scissors into cubes approximately 2-3 mm on a side. Dissociated parathyroid cells were prepared by collagenase digestion and then purified by centrifugation in Percoll buffer.
Primary culture also has the advantage that cells can be labeled with isotopes to near isotopic equilibrium, as is necessary for studies involving measurements of inositol phosphate metabolism.
ITS+ is a premixed solution containing insulin, transferrin, selenium, and bovine serum albumin (BSA)-linolenic acid (Collaborative Research, Bedford, Mass.). The cells were then transferred to plastic flasks (75 or 150 cm^2; Falcon) and incubated overnight at 37° C. in a humid atmosphere of 5% CO2. No serum is added to these overnight cultures, since its presence allows the cells to attach to the plastic, undergo proliferation, and dedifferentiate.
The cells were then pelleted, resuspended in the same buffer, but lacking the ester, and incubated a further 15 minutes at 37° C. The cells were subsequently washed twice with PCB containing 0.5 mM CaCl2 and 0.5% BSA and maintained at room temperature (about 20° C.). Immediately before use, the cells were diluted five-fold with prewarmed 0.5 mM CaCl2 -PCB to obtain a final BSA concentration of 0.1%. The concentration of cells in the cuvette used for fluorescence recording was 1-2×10^6 /ml.
The fluorescence of indicator-loaded cells was measured at 37° C. in a spectrofluorimeter (Biomedical Instrumentation Group, University of Pennsylvania, Philadelphia, Pa.) equipped with a thermostated cuvette holder and magnetic stirrer using excitation and emission wavelengths of 340 and 510 nm, respectively. […] To correct the calibration for dye leakage, cells were placed in the cuvette and stirred at 37° C. for 2-3 minutes. The cell suspension was then removed, the cells pelleted, and the supernatant returned to a clean cuvette. […] This estimate was subtracted from the apparent Fmin.
HEK 293 cells transfected with pHuPCaR4.0 were loaded with fura-2 by incubating the cells in Dulbecco's modified Eagle's media buffered with 20 mM HEPES containing about 5 μM […] for one hour at room temperature. Cell were then rinsed with Hank's balanced salt solution buffered with 20 mM HEPES containing 1 mM CaCl2 and 1 mM MgCl2. Compounds to be tested were then added to the cells and fluorescence was measured (excitation and emission wavelengths of 340 and 510 nm, respectively).

The target in experiment [6] is T1, human calcium receptor (Homo sapiens, UniProt P41180, R990G).
T1 construct: expressed in transfected cells; host or cells: HEK 293
T1 sequence (P41180 20-1078 R990G): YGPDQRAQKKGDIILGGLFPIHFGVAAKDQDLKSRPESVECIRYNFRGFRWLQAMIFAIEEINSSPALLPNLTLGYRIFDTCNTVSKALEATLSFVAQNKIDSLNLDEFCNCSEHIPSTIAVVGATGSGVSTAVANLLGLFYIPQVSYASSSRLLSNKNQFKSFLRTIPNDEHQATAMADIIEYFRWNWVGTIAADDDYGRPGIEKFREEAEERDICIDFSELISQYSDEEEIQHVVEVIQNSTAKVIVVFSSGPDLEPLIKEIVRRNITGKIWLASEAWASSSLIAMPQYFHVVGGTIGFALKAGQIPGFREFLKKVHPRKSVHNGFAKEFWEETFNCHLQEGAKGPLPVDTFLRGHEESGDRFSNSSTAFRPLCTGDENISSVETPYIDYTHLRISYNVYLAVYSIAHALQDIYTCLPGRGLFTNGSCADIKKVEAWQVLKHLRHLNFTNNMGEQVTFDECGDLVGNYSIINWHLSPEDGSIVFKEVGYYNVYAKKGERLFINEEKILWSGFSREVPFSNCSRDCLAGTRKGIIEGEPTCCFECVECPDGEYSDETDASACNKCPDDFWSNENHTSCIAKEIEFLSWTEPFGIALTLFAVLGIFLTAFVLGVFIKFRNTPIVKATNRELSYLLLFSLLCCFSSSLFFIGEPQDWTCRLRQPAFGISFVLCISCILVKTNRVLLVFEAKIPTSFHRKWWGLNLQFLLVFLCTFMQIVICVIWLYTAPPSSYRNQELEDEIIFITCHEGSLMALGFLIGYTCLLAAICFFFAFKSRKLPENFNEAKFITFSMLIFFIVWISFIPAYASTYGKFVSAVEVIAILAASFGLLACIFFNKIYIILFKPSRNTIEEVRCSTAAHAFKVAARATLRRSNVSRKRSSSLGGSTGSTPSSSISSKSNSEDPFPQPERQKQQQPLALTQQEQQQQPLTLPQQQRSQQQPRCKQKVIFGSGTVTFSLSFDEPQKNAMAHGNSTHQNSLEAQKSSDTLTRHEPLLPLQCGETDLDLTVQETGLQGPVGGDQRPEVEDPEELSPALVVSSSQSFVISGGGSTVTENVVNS
In words: increases in [Ca^2+ ]i in HEK-293 cells expressing the human calcium receptor (fura-2 loaded HEK 293/pHuPCaR4.0 cells), % activity. In kind it is cell-based.

Consider `COc1cccc([C@@H](C)NCCCc2ccccc2)c1` [NPS R-467], for which the “increases in [Ca^2+ ]i” value in experiment [1] was “Robust increases in [Ca^2+ ]i”. The “activation of oocyte-expressed calcium receptor” value in experiment [2] was “activated the oocyte-expressed receptor at about the same concentrations known to be effective for the native parathyroid cell receptor”. Also, the “binding site on the calcium receptor” value in experiment [3] is “binds to the calcium receptor at a different site (i.e., an allosteric site) than extracellular calcium”.
As to `COc1cccc([C@@H](C)NCCCc2ccccc2Cl)c1` [NPS R-568, reference compound], in experiment [4], the “pharmacological activity in human subjects” value is recorded as “showed pharmacological activity in human subjects”. Besides, the half-maximal effective concentration (EC50) in experiment [5] turned out to be 600 nM. In addition, the “activation of oocyte-expressed calcium receptor” value in experiment [2] was “activated the oocyte-expressed receptor at about the same concentrations known to be effective for the native parathyroid cell receptor”. Moreover, the “% activity” value in experiment [6] (33 ng/mL) turned out to be 69%; in experiment [6] (330 ng/mL), 95%.
`C[C@@H](NCc1ccc(C(F)(F)F)cc1)c1cccc2ccccc12` [Compound 13S]: in experiment [5], the EC50 was under 130 nM. Also, the “% activity” value is 87% in experiment [6] (33 ng/mL) and 102% in experiment [6] (330 ng/mL).
With `C[C@@H](NCc1ccc(C(C)(C)C)cc1)c1cccc2ccccc12` [Compound 15G], in experiment [5], the EC50 is about 500 nM. Moreover, the “% activity” value in experiment [6] (33 ng/mL) is on record as 80%; in experiment [6] (330 ng/mL), 113%.
For `COc1cccc([C@@H](C)NCCCc2ccc(OC)c(OC)c2)c1` [Compound 20J], in that order: over 3000 nM, 48% and 80%.
Taken in the same sequence, the figures for `COc1ccc(CN[C@H](C)c2cccc3ccccc23)cc1F` [Compound 16T] were 40 nM, 88% and 97%.
For `COc1ccc([C@@H](C)N[C@H](C)c2cccc3ccccc23)cc1C.Cl` [Compound 17P, (R)-N-(1-(4-Methoxy-3-methylphenyl)ethyl)-(R)-1-(1-naphthyl)ethylamine hydrochloride], in that order: 40 nM, 86% and 101%.
For `COc1cccc(C(C)NC(C)c2cccc3ccccc23)c1` (centres unmarked) [Compound 14Y], in experiment [5], the EC50 was 380 nM. In addition, the “% activity” value in experiment [6] (33 ng/mL) was determined as 73%; in experiment [6] (330 ng/mL), 109%.
Taken in the same sequence, the figures for `COc1ccc(CCCN[C@H](C)c2cccc(OC)c2)cc1` [Compound 20I] were over 1000 nM, 52% and 87%.
For `C[C@@H](NCc1ccc2ccccc2c1)c1cccc2ccccc12` [Compound 9C], in that order: 600 nM, 82% and 104%.
For `COc1ccc(CN[C@H](C)c2cccc3ccccc23)cc1C` [Compound 16Q], in that order: 40 nM, 88% and 110%.

The values are drawn from patent publication US6211244A, “Calcium receptor-active compounds” (priority 1995, dated 2001).
